Patent publication US8314092B2, “Substituted [(5H-pyrrolo[2,1-c][1,4]benzodiazepin-11-yl)piperazin-1-yl]-2,2-dimethylpropanoic acid compounds as dual activity H1 inverse agonists/5-HT2A antagonists” (Eli Lilly and Company, priority 2011, dated 2012)
Where a name gives a salt, the structure may show the parent alone.

What was measured:
Dopamine D2 = Dopamine D2 (Homo sapiens, UniProt P14416); assay: Dopamine D2 binding
Excerpt: (§1) Further, the compounds of the invention may be tested in binding assays and functional activity assays by well known methods for other physiologically important receptors such as, but not limited to, the hERG channel, other serotonin receptors (specifically 5-HT1A, 5-HT1B, 5-HT1D, 5-HT1E, 5-HT1F receptors, lack of agonist activity at 5-HT2B receptors, 5-HT2C, 5-HT4, 5-HTS, 5-HT6, and 5-HT7 receptors), muscarinic receptors, dopaminergic receptors (specifically D1, D2, and D3), GABAA receptors, adrenergic receptors and monoamine transporters. Certain exemplified compounds are tested at these receptors and are shown to lack significant activity.

5-HT1D = 5-HT1D (Homo sapiens, UniProt P28221); assay: 5-HT1D binding
Excerpt: as §1

5-HT5 = 5-HT5 (Homo sapiens, UniProt P47898); assay: 5-HT5 binding
Excerpt: as §1

[1] = molecular target: human recombinant H1 receptor (Homo sapiens, UniProt P35367); assay: H1 competition binding assay ([3H]-Pyrilamine SPA); parameters: expressed in transfected cells
Sequence of human recombinant H1 receptor (P35367 whole entry): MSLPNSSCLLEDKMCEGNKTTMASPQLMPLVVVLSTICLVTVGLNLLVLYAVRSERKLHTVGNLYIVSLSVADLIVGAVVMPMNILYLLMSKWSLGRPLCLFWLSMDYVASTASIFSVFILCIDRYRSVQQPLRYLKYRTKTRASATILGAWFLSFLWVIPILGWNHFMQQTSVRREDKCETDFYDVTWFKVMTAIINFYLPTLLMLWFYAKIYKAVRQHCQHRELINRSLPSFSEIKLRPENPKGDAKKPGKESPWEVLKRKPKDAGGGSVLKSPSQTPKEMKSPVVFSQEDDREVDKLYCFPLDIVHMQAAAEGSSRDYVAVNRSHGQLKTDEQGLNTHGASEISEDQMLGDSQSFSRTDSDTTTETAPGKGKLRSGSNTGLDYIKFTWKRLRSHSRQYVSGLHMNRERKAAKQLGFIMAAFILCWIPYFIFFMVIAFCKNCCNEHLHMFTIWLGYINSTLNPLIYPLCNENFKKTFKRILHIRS
Protocol: [^3H]-Pyrilamine binding experiments are carried out in SPA (scintillation proximity assay) 96-well format. Membranes used in this assay are prepared from HEK-293 cells stably expressing recombinant H1 receptor (human). The incubation is initiated by the addition of a mixture of WGA PVT SPA beads (1 mg/well, Perkin Elmer (MA, USA) RPNQ0001) and 3 μg membranes to assay buffer (67 mM Tris; pH 7.6) containing 3.5 nM [^3H]-Pyrilamine and varying concentrations of the test compound (10 point concentration response curves). Non-specific binding is determined in the presence of 10 μM Triprolidine. Samples are incubated for four hours at room temperature (22° C.) and then read in a Microbeta Trilux.
(§2) Curves are evaluated using a 4-parameter logistic nonlinear equation to obtain the concentration of competitor causing 50% inhibition of radioligand binding (IC50). Equilibrium dissociation constants (Ki) are calculated according to the equation Ki=IC50/(1+L/Kd), where L equals the concentration of radioligand used in the experiment and Kd equals the equilibrium dissociation constant of the radioligand for the receptor, determined from standard saturation analysis or homologous competition experiments. Reported values for Ki, where n values are indicated, are shown as geometric mean±the standard error of the mean (SEM), with the number of replicate determinations indicated by n. […]

Adrenergic alpha2C = Adrenergic alpha2C (Homo sapiens, UniProt P18825); assay: Adrenergic alpha2C binding
Excerpt: as §1

Dopamine D1 = Dopamine D1 (Homo sapiens, UniProt P21728); assay: Dopamine D1 binding
Sequence of Dopamine D1 (P21728 whole entry): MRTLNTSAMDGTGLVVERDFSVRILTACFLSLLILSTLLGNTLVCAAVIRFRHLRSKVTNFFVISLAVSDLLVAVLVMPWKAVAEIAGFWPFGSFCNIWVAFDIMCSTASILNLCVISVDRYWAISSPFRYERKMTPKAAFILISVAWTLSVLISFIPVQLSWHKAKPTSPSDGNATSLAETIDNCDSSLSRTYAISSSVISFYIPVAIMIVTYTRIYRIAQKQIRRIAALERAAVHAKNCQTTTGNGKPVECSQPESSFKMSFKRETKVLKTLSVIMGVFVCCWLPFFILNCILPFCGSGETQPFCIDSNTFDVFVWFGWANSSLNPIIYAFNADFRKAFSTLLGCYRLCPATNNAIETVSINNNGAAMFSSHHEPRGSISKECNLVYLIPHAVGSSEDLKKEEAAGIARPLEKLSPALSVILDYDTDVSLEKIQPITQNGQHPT
Excerpt: as §1

Adrenergic alpha2A = Adrenergic alpha2A (Homo sapiens, UniProt P08913); assay: Adrenergic alpha2A binding
Excerpt: as §1

Dopamine D3 = Dopamine D3 (Homo sapiens, UniProt P35462); assay: Dopamine D3 binding
Excerpt: as §1

Adrenergic alpha1A = Adrenergic alpha1A (Homo sapiens, UniProt P35348); assay: Adrenergic alpha1A binding
Sequence of Adrenergic alpha1A (P35348 whole entry): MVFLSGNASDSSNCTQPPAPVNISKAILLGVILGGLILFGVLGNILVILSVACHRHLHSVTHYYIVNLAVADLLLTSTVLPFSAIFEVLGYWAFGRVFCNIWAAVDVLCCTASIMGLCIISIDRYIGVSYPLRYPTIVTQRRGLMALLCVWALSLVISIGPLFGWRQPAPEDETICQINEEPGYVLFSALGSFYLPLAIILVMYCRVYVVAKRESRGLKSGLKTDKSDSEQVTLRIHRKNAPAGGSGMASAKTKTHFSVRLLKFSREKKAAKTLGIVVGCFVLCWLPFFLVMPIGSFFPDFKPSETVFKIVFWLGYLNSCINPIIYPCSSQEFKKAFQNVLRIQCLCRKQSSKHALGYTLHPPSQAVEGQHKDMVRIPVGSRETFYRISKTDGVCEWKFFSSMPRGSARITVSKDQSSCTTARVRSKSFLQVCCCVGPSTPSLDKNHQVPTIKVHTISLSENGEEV
Excerpt: as §1

Dopamine Transporter = Dopamine Transporter (Homo sapiens, UniProt Q01959); assay: Dopamine transporter assay; format: binding
Excerpt: as §1

Adrenergic alpha2B = Adrenergic alpha2B (Homo sapiens, UniProt P18089); assay: Adrenergic alpha2B binding
Excerpt: as §1

Adrenergic alpha1B = Adrenergic alpha1B (Homo sapiens, UniProt P35368); assay: Adrenergic alpha1B binding
Excerpt: as §1

[2] = molecular target: T1, recombinant 5-HT2c receptor (human) (Homo sapiens, UniProt P28335); assay: 5-HT2c competition binding assay ([125I]-DOI SPA)
T1 construct: expressed in transfected cells
Protocol: [^125I]-(±)DOI binding experiments are carried out in SPA 96-well format. Membranes used in this assay are prepared from AV-12 cells stably expressing recombinant 5-HT2c receptor (human). The incubation is initiated by the addition of a mixture of WGA PVT SPA beads (0.5 mg/well, Perkin Elmer (MA, USA), RPNQ0001) and 2.5 μg membranes to assay buffer (50 mM Tris-HCl, 10 mM MgCl2, 0.5 mM EDTA, 10 μM pargyline, 0.1% ascorbic acid, pH7.4) containing 0.2 nM [[^125I]-(±)DOI and varying concentrations of the test compound (10 point concentration response curves). Non-specific binding is determined in the presence of 20 μM 1-(1-Naphthyl)piperazine. Samples are incubated for four hours at room temperature (22° C.) and then read in a Microbeta Trilux.
Curves are evaluated using a 4-parameter logistic nonlinear equation to obtain the concentration of competitor causing 50% inhibition of radioligand binding (IC50). Equilibrium dissociation constants (Ki) are calculated according to the equation Ki=IC50/(1+L/Kd), where L equals the concentration of radioligand used in the experiment and Kd equals the equilibrium dissociation constant of the radioligand for the receptor, determined from standard saturation analysis or homologous competition experiments. […]

hERG channel = hERG channel (Homo sapiens, UniProt Q12809); assay: hERG channel assay
Sequence of hERG channel (Q12809 whole entry): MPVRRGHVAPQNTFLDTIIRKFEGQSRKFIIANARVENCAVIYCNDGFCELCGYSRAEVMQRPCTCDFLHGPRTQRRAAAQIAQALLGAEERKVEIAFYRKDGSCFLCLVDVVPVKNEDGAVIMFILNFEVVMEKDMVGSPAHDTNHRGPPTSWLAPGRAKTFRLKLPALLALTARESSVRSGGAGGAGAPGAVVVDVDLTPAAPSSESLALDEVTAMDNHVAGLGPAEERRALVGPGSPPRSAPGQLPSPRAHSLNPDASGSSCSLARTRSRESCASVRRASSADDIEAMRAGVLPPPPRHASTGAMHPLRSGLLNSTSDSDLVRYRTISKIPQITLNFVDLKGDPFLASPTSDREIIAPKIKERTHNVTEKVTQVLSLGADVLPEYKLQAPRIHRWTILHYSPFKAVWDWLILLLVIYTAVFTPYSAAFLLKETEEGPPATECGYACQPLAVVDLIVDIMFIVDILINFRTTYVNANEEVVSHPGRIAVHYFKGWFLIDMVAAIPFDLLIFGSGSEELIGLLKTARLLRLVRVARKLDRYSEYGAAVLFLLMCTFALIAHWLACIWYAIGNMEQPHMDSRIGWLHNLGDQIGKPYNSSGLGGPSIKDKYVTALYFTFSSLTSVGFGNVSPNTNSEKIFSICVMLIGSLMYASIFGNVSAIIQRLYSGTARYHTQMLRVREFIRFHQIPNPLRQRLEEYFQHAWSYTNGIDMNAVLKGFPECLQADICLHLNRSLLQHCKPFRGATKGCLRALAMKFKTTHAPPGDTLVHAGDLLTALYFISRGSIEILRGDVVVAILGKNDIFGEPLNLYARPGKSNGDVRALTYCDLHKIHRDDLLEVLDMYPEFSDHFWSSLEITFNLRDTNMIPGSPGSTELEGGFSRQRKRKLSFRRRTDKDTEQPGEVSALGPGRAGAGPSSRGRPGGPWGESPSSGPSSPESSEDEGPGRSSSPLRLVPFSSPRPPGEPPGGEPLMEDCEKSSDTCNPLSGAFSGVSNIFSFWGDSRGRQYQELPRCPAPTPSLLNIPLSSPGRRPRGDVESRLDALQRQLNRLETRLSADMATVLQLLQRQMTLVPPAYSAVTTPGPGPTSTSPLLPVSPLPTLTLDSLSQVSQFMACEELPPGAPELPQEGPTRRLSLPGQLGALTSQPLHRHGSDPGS
Excerpt: as §1

Serotonin Transporter = Serotonin Transporter (Homo sapiens, UniProt P31645); assay: Serotonin transporter assay; format: binding
Excerpt: as §1

5-HT7 = 5-HT7 (Homo sapiens, UniProt P34969); assay: 5-HT7 binding
Sequence of 5-HT7 (P34969 whole entry, species assumed): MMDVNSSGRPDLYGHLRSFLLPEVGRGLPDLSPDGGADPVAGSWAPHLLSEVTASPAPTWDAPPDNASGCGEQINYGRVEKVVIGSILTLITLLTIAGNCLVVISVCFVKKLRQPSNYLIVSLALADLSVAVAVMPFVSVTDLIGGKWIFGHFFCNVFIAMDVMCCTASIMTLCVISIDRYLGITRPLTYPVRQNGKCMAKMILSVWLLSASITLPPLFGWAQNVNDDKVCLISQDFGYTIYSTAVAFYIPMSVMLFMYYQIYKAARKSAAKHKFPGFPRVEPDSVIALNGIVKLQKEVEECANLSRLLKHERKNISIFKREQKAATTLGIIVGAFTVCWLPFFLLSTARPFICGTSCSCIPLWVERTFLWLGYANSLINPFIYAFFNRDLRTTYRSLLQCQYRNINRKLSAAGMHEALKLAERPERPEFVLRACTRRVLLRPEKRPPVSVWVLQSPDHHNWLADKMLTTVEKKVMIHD
Excerpt: as §1

[3] = molecular target: T2, recombinant 5-HT2A receptor (human) (Homo sapiens, UniProt P28223); assay: 5-HT2A competition binding assay ([3H]-Ketanserin SPA)
T2 construct: expressed in transfected cells
T2 sequence (P28223 whole entry): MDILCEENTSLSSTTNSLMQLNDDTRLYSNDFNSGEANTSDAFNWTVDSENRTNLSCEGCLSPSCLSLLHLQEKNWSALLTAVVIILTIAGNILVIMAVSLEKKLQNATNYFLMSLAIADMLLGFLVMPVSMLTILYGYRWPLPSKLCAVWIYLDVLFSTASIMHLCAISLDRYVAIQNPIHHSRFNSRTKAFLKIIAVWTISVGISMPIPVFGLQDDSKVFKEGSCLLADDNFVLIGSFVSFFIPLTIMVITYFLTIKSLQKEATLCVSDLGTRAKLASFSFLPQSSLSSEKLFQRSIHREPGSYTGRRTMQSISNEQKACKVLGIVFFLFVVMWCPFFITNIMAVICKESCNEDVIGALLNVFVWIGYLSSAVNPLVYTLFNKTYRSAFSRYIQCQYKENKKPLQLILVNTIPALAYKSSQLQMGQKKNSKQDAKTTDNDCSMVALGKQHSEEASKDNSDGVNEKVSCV
Protocol: [^3H]-Ketanserin binding experiments are carried out in SPA 96-well format. Membranes used in this assay are prepared from AV-12 cells stably expressing recombinant 5-HT2A receptor (human). The incubation is initiated by the addition of a mixture of WGA YSi SPA beads (1 mg/well, Perkin Elmer (MA, USA), RPNQ0011) and 2 μg membranes to assay buffer (67 mM Tris, 0.5 mM EDTA; pH 7.6) containing 3.1 nM [^3H]-Ketanserin and varying concentrations of the test compound (10 point concentration response curves). Non-specific binding is determined in the presence of 20 μM 1-(1-Naphthyl)piperazine. Samples were incubated for four hours at room temperature (22° C.) and then read in a Microbeta Trilux.
as §2

5-HT1A = 5-HT1A (Homo sapiens, UniProt P08908); assay: 5-HT1A binding
Sequence of 5-HT1A (P08908 whole entry, species assumed): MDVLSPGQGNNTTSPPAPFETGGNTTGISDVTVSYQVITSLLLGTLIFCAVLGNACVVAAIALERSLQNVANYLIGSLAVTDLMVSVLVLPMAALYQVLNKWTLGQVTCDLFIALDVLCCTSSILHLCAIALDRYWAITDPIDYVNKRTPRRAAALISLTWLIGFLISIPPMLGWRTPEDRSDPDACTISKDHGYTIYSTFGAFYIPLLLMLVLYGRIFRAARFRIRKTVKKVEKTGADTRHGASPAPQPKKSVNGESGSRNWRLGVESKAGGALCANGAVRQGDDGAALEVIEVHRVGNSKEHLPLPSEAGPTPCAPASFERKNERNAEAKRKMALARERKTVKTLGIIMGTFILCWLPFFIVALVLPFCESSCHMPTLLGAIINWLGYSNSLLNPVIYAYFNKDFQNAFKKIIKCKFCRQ
Excerpt: as §1

5-HT6 = 5-HT6 (Homo sapiens, UniProt P50406); assay: 5-HT6 binding
Excerpt: as §1

5-HT1B = 5-HT1B (Homo sapiens, UniProt P28222); assay: 5-HT1B binding
Sequence of 5-HT1B (P28222 whole entry, species assumed): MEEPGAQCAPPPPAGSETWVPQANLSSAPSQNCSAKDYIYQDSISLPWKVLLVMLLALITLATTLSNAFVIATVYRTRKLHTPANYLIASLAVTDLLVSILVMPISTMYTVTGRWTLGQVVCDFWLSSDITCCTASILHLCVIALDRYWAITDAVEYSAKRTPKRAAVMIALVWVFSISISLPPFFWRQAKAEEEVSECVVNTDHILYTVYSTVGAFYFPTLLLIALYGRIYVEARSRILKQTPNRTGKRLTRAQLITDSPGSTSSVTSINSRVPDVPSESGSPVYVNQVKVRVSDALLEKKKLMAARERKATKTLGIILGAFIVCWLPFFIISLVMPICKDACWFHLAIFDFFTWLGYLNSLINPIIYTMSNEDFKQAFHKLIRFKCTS
Excerpt: as §1

Norepinephrine Transport = Norepinephrine Transport (Homo sapiens, UniProt P23975); assay: Norepinephrine transporter assay; format: binding
Excerpt: as §1

Wistar rats = assay: Sleep and behavioral monitoring in rats (EEG, EMG, motion); format: in vivo; settings: rat, 3 mg/kg
Protocol: Sleep and behavioral monitoring in rats: Representative compounds of the present invention are tested in rats for their ability to increase the amount of sleep or decrease sleep interruption or both without undesired effects such as inhibition of REM sleep, waking motor impairment, and/or rebound insomnia. Test animals are continuously monitored by electro-encephalograms (EEG), electromyograms (EMG), and motion to measure cumulative nonREM sleep, cumulative total sleep, average sleep bout duration, longest sleep bout duration, rebound insomnia, REM sleep inhibition and locomotor activity intensity during wakefulness. Methods for such studies are known in the art (see for example methods described in Edgar D M, Seidel W F. Modafinil induces wakefulness without intensifying motor activity or subsequent rebound hypersomnolence in the rat. J Pharmacology & Experimental Therapeutics 1997; 283: 757-769; van Gelder R N, Edgar D M, Dement W C. Real-time automated sleep scoring: validation of a microcomputer-based system for mice. Sleep 1991, 14: 48-55; and Gross B A, Walsh C M, Turakhia A A, Booth V, Mashour G A, Poe G R. Open-source logic-based automated sleep scoring software using electrophysiological recordings in rats. J Neurosci Methods. 2009; 184(1):10-8.) Studies are conducted as follows: Animal preparation. Adult, male Wistar rats (approximately 270-300 g at time of surgery) are surgically fitted for chronic recording of EEG, EMG, and motion as follows: Rats are surgically prepared with a cranial implant consisting of four stainless steel screws for EEG recording (two frontal [3.9 mm anterior from bregma, and ±2.0 mm mediolaterally] and two occipital [6.4 mm posterior from bregma, ±5.5 mm mediolaterally]), and with two Teflon-coated stainless steel wires for EMG recording (positioned under the nuchal trapezoid muscles). All leads are soldered to a miniature connector (Microtech, Boothwyn, Pa.) prior to surgery. The implant assembly is affixed to the skull by the combination of the stainless steel EEG recording screws, cyanoacrylate applied between the implant connector and skull, and dental acrylic. Locomotor activity is monitored via a miniature transmitter (Minimitter PDT4000G, Philips Respironics, Bend, Oreg.) surgically placed into the abdomen. At least 3 weeks are allowed for recovery. Recording environment. Each rat is housed individually within a microisolator cage modified with an inserted polycarbonate filter-top riser to allow more vertical headroom. A flexible cable that minimally restricts movement is connected at one end to a commutator affixed to the cage top and at the other end to the animal's cranial implant. Each cage is located within separate, ventilated compartments of a stainless steel sleep-wake recording chamber. Food and water are available ad libitum and the ambient temperature is maintained at about 23±1° C. A 24-hr. light-dark cycle (LD 12:12) using fluorescent light is maintained throughout the study. Relative humidity averages approximately 50%. Animals are undisturbed for at least 30 hrs before and after each treatment. Study design and dosing. The vehicle (placebo, methylcellulose 15 centipoise 0.25% in water) or one of the test compound dose levels is administered orally at 1 mL/kg pseudo-randomly such that no rat receives the same treatment twice, and no rat receives more than two of the 8 treatments in any one study. Each rat is removed from its cage for about a minute to be weighed and treated. At least 6 days “washout” period precede and follow each treatment. Data collection. […]

Sequence of Dopamine D2 (P14416 whole entry): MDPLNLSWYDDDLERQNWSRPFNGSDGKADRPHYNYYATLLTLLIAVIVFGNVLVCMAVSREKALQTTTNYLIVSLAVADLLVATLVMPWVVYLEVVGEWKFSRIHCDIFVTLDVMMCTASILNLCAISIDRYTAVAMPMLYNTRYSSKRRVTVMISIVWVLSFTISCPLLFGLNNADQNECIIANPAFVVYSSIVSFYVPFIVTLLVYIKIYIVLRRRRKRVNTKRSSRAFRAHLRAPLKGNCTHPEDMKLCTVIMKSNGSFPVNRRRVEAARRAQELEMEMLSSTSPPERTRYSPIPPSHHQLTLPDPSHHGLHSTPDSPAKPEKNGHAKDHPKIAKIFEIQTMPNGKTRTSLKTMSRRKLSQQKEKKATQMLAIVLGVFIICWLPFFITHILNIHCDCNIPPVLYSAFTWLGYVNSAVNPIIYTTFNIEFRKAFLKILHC

`Cc1cc2n(c1)Cc1cc(Cl)ccc1N=C2N1CCN(CC(C)(C)C(=O)O)CC1` [Example 1, 3-[4-(7-chloro-2-methyl-5H-pyrrolo[2,1-c][1,4]benzodiazepin-11-yl)piperazin-1-yl]-2,2-dimethylpropanoic acid] was tested, and the Ki (Dopamine D2) was over 4.5 µM, the Ki (5-HT1D) was over 3.98 µM and the Ki (5-HT5) was over 8.83 µM. It also gave a Ki [1] of 27.3 nM, a Ki (Adrenergic alpha2C) of over 4.02 µM and a Ki (Dopamine D1) of 3.79 µM. It also gave a Ki (Adrenergic alpha2A) of over 9.03 µM, a Ki (Dopamine D3) of over 5.68 µM and a Ki (Adrenergic alpha1A) of over 8.91 µM. For the same molecule, the “Dopamine Transporter” value (Dopamine Transporter) was over 879, the Ki (Adrenergic alpha2B) was over 4.98 µM and the Ki (Adrenergic alpha1B) was over 10.9 µM. For the same molecule, the Ki [2] was 3.81 µM, the “hERG Channel” value (hERG channel) was over 100 µM and the “Serotonin Transporter” value (Serotonin Transporter) was over 641. For the same molecule, the Ki (5-HT7) was over 2060 nM, the Ki [3] was 57.5 nM and the Ki (5-HT1A) was over 6.94 µM. For the same molecule, the Ki (5-HT6) was 2690 nM, the Ki (5-HT1B) was over 5.58 µM and the “Norepinephrine Transport” value (Norepinephrine Transport) was over 682.

`CC(C)(CN1CCN(C2=Nc3ccc(Cl)cc3Cn3cc(Br)cc32)CC1)C(=O)O` [Example 15, 3-[4-(2-Bromo-7-chloro-5H-pyrrolo[2,1-c][1,4]benzodiazepin-11-yl)piperazin-1-yl]-2,2-dimethylpropanoic acid dihydrochloride] was tested, and the “REM sleep inhibition (in words)” value (Wistar rats) was “without significant”, the “cumulative NREM sleep time (in words)” value (Wistar rats) was “significantly increase” and the “cumulative total sleep time (in words)” value (Wistar rats) was “significantly increase”. The “inhibition of locomotor intensity (LMI) (in words)” value (shortened to “inhibition of locomotor intensity”) (Wistar rats) was “without significant” and the “rebound insomnia (in words)” value (Wistar rats) was “without significant”.

`CCc1cc2n(c1)Cc1cc(Cl)ccc1N=C2N1CCN(CC(C)(C)C(=O)O)CC1` [Example 16, 3-[4-(7-Chloro-2-ethyl-5H-pyrrolo[2,1-c][1,4]benzodiazepin-11-yl)piperazin-1-yl]-2,2-dimethylpropanoic acid dihydrochloride] was tested, and the “REM sleep inhibition (in words)” value (Wistar rats) was “without significant”, the “cumulative NREM sleep time (in words)” value (Wistar rats) was “significantly increase” and the “cumulative total sleep time (in words)” value (Wistar rats) was “significantly increase”. The “inhibition of locomotor intensity” value (Wistar rats) was “without significant” and the “rebound insomnia (in words)” value (Wistar rats) was “without significant”.

In the case of `CC(C)(CN1CCN(C2=Nc3ccc(Cl)cc3Cn3cc(C(F)(F)F)cc32)CC1)C(=O)O` [Example 18, 3-{4-[7-Chloro-2-(trifluoromethyl)-5H-pyrrolo[2,1-c][1,4]benzodiazepin-11-yl]piperazin-1-yl}-2,2-dimethylpropanoic acid dihydrochloride], the “REM sleep inhibition (in words)” value (Wistar rats) is reported as “without significant”, the “cumulative NREM sleep time (in words)” value (Wistar rats) is reported as “significantly increase” and the “cumulative total sleep time (in words)” value (Wistar rats) is reported as “significantly increase”. For the same molecule, the “inhibition of locomotor intensity” value (Wistar rats) was “without significant” and the “rebound insomnia (in words)” value (Wistar rats) was “without significant”.

For `CC(C)(CN1CCN(C2=Nc3ccc(Cl)cc3Cn3cc(Cl)cc32)CC1)C(=O)O` [Example 19, 3-[4-(2,7-Dichloro-5H-pyrrolo[2,1-c][1,4]benzodiazepin-11-yl)piperazin-1-yl]-2,2-dimethylpropanoic acid dihydrochloride], the “REM sleep inhibition (in words)” value (Wistar rats) was “without significant”, the “cumulative NREM sleep time (in words)” value (Wistar rats) was “significantly increase” and the “cumulative total sleep time (in words)” value (Wistar rats) was “significantly increase”. The “inhibition of locomotor intensity” value (Wistar rats) was “without significant” and the “rebound insomnia (in words)” value (Wistar rats) was “without significant”.
